What follows are compounds tested against Substance-P receptor (Homo sapiens, UniProt P25103) (assay: Tested for binding affinity by measuring displacement of [125I]SP from human NK-1 receptor in CHO Cells).
Sequence of Substance-P receptor (P25103 whole entry): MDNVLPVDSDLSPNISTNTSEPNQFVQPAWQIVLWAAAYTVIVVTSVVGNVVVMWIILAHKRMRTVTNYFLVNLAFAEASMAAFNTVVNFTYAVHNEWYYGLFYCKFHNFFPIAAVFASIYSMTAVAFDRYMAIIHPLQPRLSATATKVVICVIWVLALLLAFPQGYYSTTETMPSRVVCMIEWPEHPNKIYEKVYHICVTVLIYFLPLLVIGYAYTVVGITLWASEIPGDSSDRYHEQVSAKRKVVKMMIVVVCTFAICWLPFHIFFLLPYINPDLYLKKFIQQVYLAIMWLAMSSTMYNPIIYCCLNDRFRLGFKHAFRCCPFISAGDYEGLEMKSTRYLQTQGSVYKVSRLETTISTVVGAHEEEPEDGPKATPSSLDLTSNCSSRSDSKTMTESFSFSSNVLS

| Compound | IC50 |
| --- | --- |
| FC(F)(F)c1cc(CO[C@@H]2C3CCN(CC3)[C@H]2C(c2ccccc2)c2ccccc2)cc(C(F)(F)F)c1 | 0.27 µM |
| FC(F)(F)c1cc(CO[C@@H]2C3CCN(CC3)[C@@H]2C(c2ccccc2)c2ccccc2)cc(C(F)(F)F)c1 | 0.57 µM |
| FC(F)(F)c1cc(CO[C@H]2C3CCN(CC3)[C@@H]2C(c2ccccc2)c2ccccc2)cc(C(F)(F)F)c1 | 0.0007 µM |
| FC(F)(F)c1cc(CO[C@H]2C3CCN(CC3)[C@H]2C(c2ccccc2)c2ccccc2)cc(C(F)(F)F)c1 [L-709210] | 0.0013 µM |
